Numbered stars: 1 amine (or outer) side, 2 acyl side, 3 side chain; on linkers, the order of the positions; unused ones are H or OH. Bridge positions count the residues as written; N and C are the ends. Square brackets hold non-standard residues; d marks the D form. Peptide text beside a SMILES is read from it. I, II: the chains in the order shown. 2Nal = N[C@@H](Cc1ccc2ccccc2c1)C(=O)O; Diglycolyl = O=C(COCC(=O)[*:2])[*:1]; NMeR = CN[C@@H](CCCNC(=N)N)C(=O)O; NMeK = CN[C@@H](CCCCN)C(=O)O; Pen = CC(C)(S)[C@H](N)C(=O)O; dNMeK = CN[C@H](CCCCN)C(=O)O A value given as a limit tells only on which side of the number the result lay.

The term half-life denotes how long it takes for the measured level to halve.

The first data set can be described thus: Cysteine/Cystine Redox Stability Assay. Format: physicochemical. The following applies: Table 4-C; ORP where half of the oxidized peptide remains. How it is done:
Peptides were diluted to 90 μM by adding 4.545 μl of a 10 mM peptide DMSO stock to 495.45 μl of 100 mM Tris-Cl, pH 7.5. Aliquots of […] were transferred to 8 wells down a column of a 96 well plate. 20 μl of 2.5 mM Cystine in 100 mM Tris-Cl, pH 7.5 was added to each well. Cysteine stock solutions in 100 mM Tris-Cl, pH 7.5 were prepared fresh at the following concentrations: 400 mM, 200 mM, 80 mM, 44 mM, 22 mM, 11 mM, 5.5 mM and blank. At time 0, 25 μl of each cysteine stock solution was added to the 55 μl of cystine/peptide solution, and the mixture was incubated at room temperature for 40 min. The samples were quenched by adding 20 μl of 5M acetic acid and analyzed by reverse phase HPLC. The fraction of oxidized peptide was calculated and plotted against the calculated oxidation reduction potential (ORP) as defined by the Nernst equation. The ORP where half of the oxidized peptide remains is shown below.
As for `CC(=O)N[C@@H]1C(=O)N(C)[C@@H](CCCNC(=N)N)C(=O)N[C@@H](CO)C(=O)N[C@@H](CC(=O)O)C(=O)N[C@@H]([C@@H](C)O)C(=O)N[C@@H](CC(C)C)C(=O)N[C@H](C(=O)N[C@@H](Cc2ccc3ccccc3c2)C(=O)N[C@@H](CCC(=O)O)C(=O)N[C@H](CCCCN)C(N)=O)C(C)(C)SSC1(C)C` [compound 210, Ac-Pen-N-Me-R-S-D-T-L-Pen-2-Nal-E-k-NH2] (Ac-[Pen][NMeR]SDTL[Pen][2Nal]E[dK]-NH2; disulfide 1-7), the “Cys/CySS (mV)” value is below −300 mV.
As for `CC(=O)N[C@@H]1C(=O)N(C)[C@@H](CCCNC(=N)N)C(=O)N[C@@H](CO)C(=O)N[C@@H](CC(=O)O)C(=O)N[C@@H]([C@@H](C)O)C(=O)N[C@@H](CC(C)C)C(=O)N[C@H](C(=O)N[C@@H](Cc2c[nH]c3ccccc23)C(=O)N[C@H](CCCCN)C(N)=O)C(C)(C)SSC1(C)C` [compound 208, Ac-Pen-N-Me-R-S-D-T-L-Pen-W-k-NH2] (Ac-[Pen][NMeR]SDTL[Pen]W[dK]-NH2; disulfide 1-7), the “Cys/CySS (mV)” value is reported as below −300 mV.

A short description of the next data set: Intestinal Wash Assay. Type of data set: in vitro ADME. More on the design: dose or concentration left out as unconfirmed. The following applies: rat, rat intestinal wash fluid (small intestine); Table 4-C, t1/2. As to the method:
Intestinal wash assay solution was prepared from rats fasted for at least 6 hours prior. The animals were euthanized and a midline incision was made from the point of the jaw to the pubis. The abdomen and chest were opened by making 2 incisions through the anterior chest wall on either side. Hemostats were used to clamp off both ends of the animal's stomach—where the esophagus meets the stomach and where the stomach meets the duodenum. A hemostat was also used to clamp 2-3 cm down the intestine from where the stomach meets the duodenum.
Intestinal wash assay solution was prepared by separating 20 cm of the small intestine from the body. Once separated 20 cm, the end was clamped with a hemostat and the section cut from the body, leaving the hemostats in place on the removed section. 1 mL of chilled saline was drawn up with a 1 mL syringe. One end of the intestine was held up and the clamp removed. Approximately 2-2.5 cm of the gavage needle was inserted into the intestine, and the saline was slowly injected. The fluid was massaged down the length of the intestine using gloved fingers. The gavage needle was removed and the clamp was replaced on the end of the intestine. The intestine was sat straight and a q-tip was run firmly up and down the length of the outside of the intestine approximately 3-6 times to mix the enzymes with the saline. One end of the intestine was held up and some of the fluid was carefully moved at the top down. The clamp was removed and that end of the intestine was set into a small weigh boat on ice. The other end of the intestine was carefully picked up and held vertically. Gloved fingers were gently run down it to squeeze the fluid into the container. The previous steps saline injection and fluid procurement steps were repeated twice using only 0.5 mL of chilled saline. The sample was pipetted from the weigh boat into a centrifuge tube and placed on ice. All intestinal wash samples were spun down in a cold centrifuge at 12,000×g for 10 minutes. The supernatant from the top of each centrifuged sample was pipetted into cryotubes, and kept on ice until use.
Intestinal wash assays were performed using intestinal wash assay solution prepared as described above. A sufficient amount of rat intestinal wash was thawed. For each sample, 200 uL of rat intestinal wash fluid was pipetted into 1.5 mL Eppendorf tubes (number of tubes for experiment=number of test peptides×N). The tubes were pre-incubated for about 10 minutes in a water bath at 37° C.
Peptide working solutions ([…]) were prepared by combining 2 μl of 10 mM DMSO stock with 128 μl 100 mM Tris pH 7.5.
Peptide quench solvent (50% ACN-50% MeOH-5% Formic Acid)+IS (5 ug/ml; 1 ul of 10 mg/mL IS per 2 mL quench solvent) was prepare and a quench plate prepared and placed on ice. 200 ul of quench solution was added to each well of the quench plate for T=0, 10, 20, 30, 60 and 180 min collection.
For each test sample and a positive control, 30 ul of peptide working solution was added to a tube of intestinal wash fluid. The tube was gently vortexed and 30 ul was immediately removed and quenched in T=0 well of quench plate (pipetted directly into the quench solution). This well was covered tightly to prevent evaporation. 30 ul aliquots were removed at T=10 min, T=20 min, T=30 min, T=60 min, and T=180 min, and quenched. When all time points were collected, the quench plate was centrifuged at 10,000 rpm for 10 minutes. 150 uL of each supernatant was transferred to a polypropylene 96-well collection plate. 300 ul Mobile Phase A was added to each collection, and LC/MS/MS analysis was performed to determine the amount or concentration of peptide remaining in each test sample and positive control.
`CC(=O)N[C@@H]1C(=O)N(C)[C@@H](CCCNC(=N)N)C(=O)N[C@@H](CO)C(=O)N[C@@H](CC(=O)O)C(=O)N[C@@H]([C@@H](C)O)C(=O)N[C@@H](CC(C)C)C(=O)N[C@H](C(=O)N[C@@H](Cc2ccc3ccccc3c2)C(=O)N[C@@H](CCC(=O)O)C(=O)N[C@H](CCCCNC(=O)COCC(=O)NCCCC[C@@H](NC(=O)[C@H](CCC(=O)O)NC(=O)[C@H](Cc2ccc3ccccc3c2)NC(=O)[C@H]2NC(=O)[C@H](CC(C)C)NC(=O)[C@H]([C@@H](C)O)NC(=O)[C@H](CC(=O)O)NC(=O)[C@H](CO)NC(=O)[C@H](CCCNC(=N)N)N(C)C(=O)[C@@H](NC(C)=O)C(C)(C)SSC2(C)C)C(N)=O)C(N)=O)C(C)(C)SSC1(C)C` [compound 212, (Ac-Pen-N-Me-R-S-D-T-L-Pen-2-Nal-E-k-NH2)2-DIG] (I: Ac-[Pen][NMeR]SDTL[Pen][2Nal]E[dK]-NH2 / II: Ac-[Pen][NMeR]SDTL[Pen][2Nal]E[dK]-NH2; disulfide I:1-I:7, II:1-II:7 (inferred); linker I:10-II:10 via Diglycolyl (inferred)) had a half-life of 1.63 h.
As for `CC(=O)N[C@@H]1C(=O)N(C)[C@@H](CCCNC(=N)N)C(=O)N[C@@H](CO)C(=O)N[C@@H](CC(=O)O)C(=O)N[C@@H]([C@@H](C)O)C(=O)N[C@@H](CC(C)C)C(=O)N[C@H](C(=O)N[C@@H](Cc2c[nH]c3ccccc23)C(=O)N[C@@H](CCC(=O)O)C(=O)N(C)[C@@H](CCCCNC(=O)COCC(=O)NCCCC[C@@H](C(N)=O)N(C)C(=O)[C@H](CCC(=O)O)NC(=O)[C@H](Cc2c[nH]c3ccccc23)NC(=O)[C@H]2NC(=O)[C@H](CC(C)C)NC(=O)[C@H]([C@@H](C)O)NC(=O)[C@H](CC(=O)O)NC(=O)[C@H](CO)NC(=O)[C@H](CCCNC(=N)N)N(C)C(=O)[C@@H](NC(C)=O)C(C)(C)SSC2(C)C)C(N)=O)C(C)(C)SSC1(C)C` [compound 215, [Ac-Pen-(N-Me-Arg)-Ser-Asp-Thr-Leu-Pen-Trp-Glu-(N-Me-Lys)-NH2]2-DIG] (I: Ac-[Pen][NMeR]SDTL[Pen]WE[NMeK]-NH2 / II: Ac-[Pen][NMeR]SDTL[Pen]WE[NMeK]-NH2; disulfide I:1-I:7, II:1-II:7 (inferred); linker I:10-II:10 via Diglycolyl (inferred)), the half-life is above 6 h.
Take `CC(=O)N[C@@H]1C(=O)N(C)[C@@H](CCCNC(=N)N)C(=O)N[C@@H](CO)C(=O)N[C@@H](CC(=O)O)C(=O)N[C@@H]([C@@H](C)O)C(=O)N[C@@H](CC(C)C)C(=O)N[C@H](C(=O)N[C@@H](Cc2c[nH]c3ccccc23)C(=O)N[C@H](CCC(=O)O)C(=O)N[C@H](CCCCNC(=O)COCC(=O)NCCCC[C@@H](NC(=O)[C@@H](CCC(=O)O)NC(=O)[C@H](Cc2c[nH]c3ccccc23)NC(=O)[C@H]2NC(=O)[C@H](CC(C)C)NC(=O)[C@H]([C@@H](C)O)NC(=O)[C@H](CC(=O)O)NC(=O)[C@H](CO)NC(=O)[C@H](CCCNC(=N)N)N(C)C(=O)[C@@H](NC(C)=O)C(C)(C)SSC2(C)C)C(N)=O)C(N)=O)C(C)(C)SSC1(C)C` [compound 211, (Ac-Pen-N-Me-R-S-D-T-L-Pen-W-e-k-NH2)2-DIG] (I: Ac-[Pen][NMeR]SDTL[Pen]W[dE][dK]-NH2 / II: Ac-[Pen][NMeR]SDTL[Pen]W[dE][dK]-NH2; disulfide I:1-I:7, II:1-II:7 (inferred); linker I:10-II:10 via Diglycolyl (inferred)): the half-life was found to be 2.98 h.
Consider `CC(=O)N[C@@H]1C(=O)N(C)[C@@H](CCCNC(=N)N)C(=O)N[C@@H](CO)C(=O)N[C@@H](CC(=O)O)C(=O)N[C@@H]([C@@H](C)O)C(=O)N[C@@H](CC(C)C)C(=O)N[C@H](C(=O)N[C@@H](Cc2c[nH]c3ccccc23)C(=O)N[C@@H](CCC(=O)O)C(=O)N(C)[C@H](CCCCNC(=O)COCC(=O)NCCCC[C@H](C(N)=O)N(C)C(=O)[C@H](CCC(=O)O)NC(=O)[C@H](Cc2c[nH]c3ccccc23)NC(=O)[C@H]2NC(=O)[C@H](CC(C)C)NC(=O)[C@H]([C@@H](C)O)NC(=O)[C@H](CC(=O)O)NC(=O)[C@H](CO)NC(=O)[C@H](CCCNC(=N)N)N(C)C(=O)[C@@H](NC(C)=O)C(C)(C)SSC2(C)C)C(N)=O)C(C)(C)SSC1(C)C` [compound 214, [Ac-Pen-(N-Me-Arg)-Ser-Asp-Thr-Leu-Pen-Trp-Glu-(N-Me-D-Lys)-NH2]2-DIG] (I: Ac-[Pen][NMeR]SDTL[Pen]WE[dNMeK]-NH2 / II: Ac-[Pen][NMeR]SDTL[Pen]WE[dNMeK]-NH2; disulfide I:1-I:7, II:1-II:7 (inferred); linker I:10-II:10 via Diglycolyl (inferred)), for which the half-life was above 6 h.
As for `CC(=O)N[C@H]1CSSC[C@@H](C(=O)NCC(=O)N[C@@H](CCC(=O)O)C(N)=O)NC(=O)[C@H](CC(C)C)NC(=O)[C@H]([C@@H](C)O)NC(=O)[C@H](CC(=O)O)NC(=O)[C@H](CO)NC(=O)[C@H](CCCNC(=N)N)N(C)C1=O` [compound 198, Ac-C-N-Me-R-S-D-T-L-C-G-E-NH2] (Ac-C[NMeR]SDTLCGE-NH2; disulfide 1-7), the half-life came out at 0.5 h.
Molecule `CC(=O)N[C@@H]1C(=O)N(C)[C@@H](CCCNC(=N)N)C(=O)N[C@@H](CO)C(=O)N[C@@H](CC(=O)O)C(=O)N[C@@H]([C@@H](C)O)C(=O)N[C@@H](CC(C)C)C(=O)N[C@H](C(=O)N[C@@H](Cc2c[nH]c3ccccc23)C(=O)N[C@H](CCC(=O)O)C(=O)N[C@H](CCCCNC(=O)COCC(=O)NCCCC[C@@H](NC(=O)[C@@H](CCC(=O)O)NC(=O)[C@H](Cc2c[nH]c3ccccc23)NC(=O)[C@H]2NC(=O)[C@H](CC(C)C)NC(=O)[C@H]([C@@H](C)O)NC(=O)[C@H](CC(=O)O)NC(=O)[C@H](CO)NC(=O)[C@H](CCCNC(=N)N)N(C)C(=O)[C@@H](NC(C)=O)C(C)(C)SSC2(C)C)C(=O)O)C(=O)O)C(C)(C)SSC1(C)C` [compound 216, (Ac-Pen-N-Me-R-S-D-T-L-Pen-W-e-k-OH)2-DIG] (I: Ac-[Pen][NMeR]SDTL[Pen]W[dE][dK]-OH / II: Ac-[Pen][NMeR]SDTL[Pen]W[dE][dK]-OH; disulfide I:1-I:7, II:1-II:7 (inferred); linker I:10-II:10 via Diglycolyl (inferred)) returned a half-life above 6 h.

The values are drawn from US9809623B2, “α4β7 peptide monomer and dimer antagonists” (Protagonist Therapeutics, Inc., priority 2014, dated 2017).
